Like-named read-outs stand apart in the source and are kept apart here.
Key:
[1] = Blood elimination kinetics of contrast media in rats after one-time intravenous administration; assay type: in vivo, rats (Han Wistar, Schering SPF); settings: for distribution volume Vss, MEAN / elimination half-life Tβ, MEAN / total clearance CLtot, MEAN: one-time i.v., Dy-DTPA 100 μmol Dy/kg (n=3), Example 1c 50 μmol Gd/kg (n=2), TOPFIT 2.0
Method: The blood elimination kinetics of contrast media was examined in rats (Han Wistar, Schering SPF, ≈250 g of body weight). For this purpose, after one-time intravenous administration (via a caudal vein) of the substances (dose: 50-100 μmol of Me per kg of body weight), the substance concentration in the blood (based on the Gd or Dy content) was determined over a period of up to 300 minutes p.i. with the aid of ICP-AES. The pharmacokinetic parameters: distribution volume (Vss), total clearance (CLtot) and elimination half-life (tβ) were calculated with a special computer program (TOPFIT 2.0; Thomae, Schering, Gödecke), whereby a one- or two-compartment distribution model was used as a basis.
FIG. 1 represents elimination from the blood (in % of the injected dose) of Dy-DTPA (dose: 100 μmol of Dy per kg of body weight, n=3) and of the fluorine compounds of Example 1c according to the invention (dose: 50 μmol of Gd per kg of body weight, n=2) after one-time intravenous administration of substances in rats (Han Wistar, Schering SPF, ≈250 g of body weight).
The Gd and Dy contents in the blood were determined with the aid of ICP-AES.

[2] = T1-relaxivity with Minispec pc 20 (20 MHz, 0.47T) at 37° C. in water and human plasma; assay type: physicochemical; settings: for T1-relaxivity: 20 MHz; for R^1 [L/mmol * sec] at 0.47 T and 37° C. Plasma / R^1 [L/mmol * sec] at 0.47 T and 37° C. Water: T1-relaxivity, Minispec pc 20 (20 MHz, 0.47 T); for R^1 [L/mmol * sec] at 0.47 T and 37° C. Plasma: in human plasma; for R^1 [L/mmol * sec] at 0.47 T and 37° C. Water: in water
Method: The relaxivity of the following compounds was determined with a Minispec pc 20 (20 MHz, 0.47T) at 37° C. in water and human plasma and compared to that of Gd-DTPA-polylysine and Magnevist^(R) as comparison substances.

[3] = Lymph node visualization (MRT) after interstitial administration of the contrast medium; assay type: in vivo; settings: guinea pigs, 120 minutes after s.c. 10 μmol of Gd/kg, T1-weighted spin echo (TR 400 ms, TE 15 ms)
Method: It was possible to confirm the special suitability of the compounds according to the invention in MR imaging studies in guinea pigs. Thus, 120 minutes after subcutaneous administration of 10 μmol/kg of body weight of a perfluorine-containing gadolinium complex (guinea pigs, hind paw, interdigital space) in T^1-weighted spin-echo images (TR 400 ms, TE 15 ms), a clear enhancement of the popliteal lymph nodes (270%) as well as the inguinal lymph nodes (104%) was observed (cf. Image 1).

[4] = Elimination of the contrast medium after i.p. administration (retention of metal in liver and remainder of the body); assay type: in vivo; settings: rats, i.p. 100 μmol of total gadolinium/kg, 14 days p.i.
From the text: After administration of a perfluorinated gadolinium complex according to the invention (100 μmol of total gadolinium/kg of body weight) in the intraperitoneal space of rats, the retention of metal in the liver as well as in the remainder of the body was examined 14 days after administration. In this test, fluorine-containing compound 2c) was used. After 14 days p.i., the gadolinium concentration was 0.22% of the administered dose in the liver and 1.1% of the administered dose in the remainder of the body.

[5] = rat, in vivo, iv; cited from earlier work
[6] = T1-relaxivity, from Invest. Radiol. 1992, 346, cited from earlier work

| T1-relaxivity ([2]; human plasma) [L/mmol/s] | T1-relaxivity ([2]; water) [L/mmol/s] | R^1 [L/mmol * sec] at 0.47 T and 37° C. Plasma [2] [L/mmol/s] | R^1 [L/mmol * sec] at 0.47 T and 37° C. Water [2] [L/mmol/s] | Compound | further results |
| --- | --- | --- | --- | --- | --- |
| 49 | 41 | 49 | 41 | CCN(CC(=O)NCC(O)CN1CCN(CC(=O)[O-])CCN(CC(=O)[O-])CCN(CC(=O)[O-])CC1)S(=O)(=O)C(F)(F)C(F)(F)C(F)(F)C(F)(F)C(F)(F)C(F)(F)C(F)(F)C(F)(F)F.[Gd+3] (stereo not drawn) [Example 1c, Gadolinium Complex of 10-[2-hydroxy-4-aza-5-oxo-7aza-7-(perfluorooctylsulfonyl)-nonyl]-1,4,7-tris(carboxymethyl)-1,4,7,10-tetraazacyclododecane] | distribution volume in comparison to Dy-DTPA ([1]; i.v.): smaller distribution volume; elimination from the blood in comparison to Dy-DTPA ([1]; i.v.): considerably slower elimination from the blood; distribution volume Vss, MEAN [1]: 0.14 L/kg; elimination half-life Tβ, MEAN [1]: 95.01 min; total clearance CLtot, MEAN [1]: 1.07 mL/min/kg |
| 4.2 | 2.7 | – | – | CCN(CC(=O)NCC(O)CN1CCN(CC(=O)[O-])CCN(CC(=O)[O-])CCN(CC(=O)[O-])CC1)S(=O)(=O)C(F)(F)C(F)(F)C(F)(F)C(F)(F)C(F)(F)C(F)(F)C(F)(F)C(F)(F)F.[Mn+2].[Na+] (stereo not drawn) [Example 1e, Manganese complex of 10-[2-hydroxy-4-aza-5-oxo-7-aza-7-(perfluorooctylsulfonyl)-nonyl]-1,4,7-tris(carboxymethyl)-1,4,7,10-tetraazacyclododecane (as sodium salt)] | – |
| 33 | 19 | 33 | 19 | O=C([O-])CN1CCN(CC(=O)[O-])CCN(CC(O)CNC(=O)COCCC(F)(F)C(F)(F)C(F)(F)C(F)(F)C(F)(F)C(F)(F)C(F)(F)C(F)(F)F)CCN(CC(=O)[O-])CC1.[Gd+3] (stereo not drawn) [Example 2c, Gadolinium complex of 10-[2-hydroxy-4-aza-5-oxo-7-oxa-10,10,11,11,12,12,13,13,14,14,15,15,16,16,17,17,17-heptadecafluoroheptadecyl]-1,4,7-tris(carboxymethyl)-1,4,7,10-tetraazacyclododecane] | signal in the popliteal and inguinal lymph nodes of the injected side vs non-injected side or precontrast image [3]: strong signal rise; gadolinium concentration in the liver [4]: 0.22 % of the administered dose; gadolinium concentration in the remainder of the body [4]: 1.1 % of the administered dose |
| 27.5 | 15.2 | 27.5 | 15.2 | O=C([O-])CN1CCN(CC(=O)[O-])CCN(CC(O)COCCC(F)(F)C(F)(F)C(F)(F)C(F)(F)C(F)(F)C(F)(F)C(F)(F)C(F)(F)F)CCN(CC(=O)[O-])CC1.[Gd+3] (stereo not drawn) [Example 3c, Gadolinium complex of 10-[-2hydroxy-4-oxa-1H,1H,2H,3H,3H,5H,5H,6H,6H-perfluorotetradecyl]-1,4,7-tris(carboxymethyl)-1,4,7,10-tetraazacyclododecane] | – |

The remaining lines, values behind:

| Compound | T1-relaxivity ([2]; human plasma) [L/mmol/s] | T1-relaxivity ([2]; water) [L/mmol/s] | R^1 [L/mmol * sec] at 0.47 T and 37° C. Plasma [2] [L/mmol/s] | R^1 [L/mmol * sec] at 0.47 T and 37° C. Water [2] [L/mmol/s] | further results |
| --- | --- | --- | --- | --- | --- |
| O=C([O-])CN(CCN(CC(=O)[O-])CC(=O)[O-])CCN(CC(=O)[O-])CC(=O)[O-].[Dy+3].[Na+].[Na+] [Dy-DTPA, reference compound] | – | – | – | – | distribution volume Vss, MEAN [1]: 0.17 L/kg; elimination half-life Tβ, MEAN [1]: 14.98 min; total clearance CLtot, MEAN [1]: 9.27 mL/min/kg |
| CNC[C@H](O)[C@@H](O)[C@H](O)[C@H](O)CO.CNC[C@H](O)[C@@H](O)[C@H](O)[C@H](O)CO.O=C([O-])CN(CCN(CC(=O)[O-])CC(=O)O)CCN(CC(=O)[O-])CC(=O)O.[Gd+3] [Magnevist, reference compound] | – | – | 4.8 | 3.8 | – |
| albumin-Gd-DTPA | – | – | – | – | concentration in the liver tissue [5]: ~30 % of the dose |
| polylysine-Gd-DTPA | – | – | – | – | R^1 [L/mmol * sec] at 0.47 T and 37° C. Plasma ([6]; in plasma): 16.8 L/mmol/s; R^1 [L/mmol * sec] at 0.47 T and 37° C. Water ([6]; in water): 13.1 L/mmol/s |

Source: patent US6916461B2, “Metal complexes that contain perfluoroalkyl, process for their production and their use in NMR diagnosis” (Schering AG, priority 1996, dated 2005)
